Experimental data from patent US8802661B2, “C-28 amides of modified C-3 betulinic acid derivatives as HIV maturation inhibitors” (priority 2010, dated 2014).

Each molecule was assayed on recombinant NL4-3 virus (Renilla luciferase in nef, Gag P373S) (assay: HIV Cell Culture Assay (luciferase reporter virus in MT-2 cells)). Conditions: NL43.
Type: cell-based
How it was run: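 First, reporter virus was generated in 293T cells and titered on MT-2 cells. Next, MT-2 cells were infected in the presence of serial compound dilutions for 4-5 days. Finally, cells were lysed and luciferase activity was measured to quantify inhibition.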

SMILES	EC50 [nM]
C=C(C)[C@@H]1CC[C@]2(C(=O)NCc3ccc(Cl)cc3)CC[C@]3(C)[C@H](CC[C@@H]4[C@@]5(C)CC=C(c6ccc(C(=O)O)cc6)C(C)(C)[C@@H]5CC[C@]43C)[C@@H]12 [Example 60, 4-((1R,3aS,5aR,5bR,7aR,11aS,11bR,13aR,13bR)-3a-(4-chlorobenzylcarbamoyl)-5a,5b,8,8,11a-pentamethyl-1-(prop-1-en-2-yl)-2,3,3a,4,5,5a,5b,6,7,7a,8,11,11a,11b,12,13,13a,13b-octadecahydro-1H-cyclopenta[a]chrysen-9-yl)benzoic acid]	48

Same assay, conditions: NL43, read-out: EC50 Group

SMILES	EC50 [nM]
C=C(C)[C@@H]1CC[C@]2(C(=O)Nc3nncs3)CC[C@]3(C)[C@H](CC[C@@H]4[C@@]5(C)CC=C(c6ccc(C(=O)O)cc6)C(C)(C)[C@@H]5CC[C@]43C)[C@@H]12 [Example 51, 4-((1R,3aS,5aR,5bR,7aR,11aS,11bR,13aR,13bR)-3a-(1,3,4-thiadiazol-2-ylcarbamoyl)-5a,5b,8,8,11a-pentamethyl-1-(prop-1-en-2-yl)-2,3,3a,4,5,5a,5b,6,7,7a,8,11,11a,11b,12,13,13a,13b-octadecahydro-1H-cyclopenta[a]chrysen-9-yl)benzoic acid]	< 100
C=C(C)[C@@H]1CC[C@]2(C(=O)NCCNCC(=O)O)CC[C@]3(C)[C@H](CC[C@@H]4[C@@]5(C)CC=C(c6ccc(C(=O)O)cc6)C(C)(C)[C@@H]5CC[C@]43C)[C@@H]12 [Example 81, 4-((1R,3aS,5aR,5bR,7aR,11aS,11bR,13aR,13bR)-3a-(2-(carboxymethylamino)ethylcarbamoyl)-5a,5b,8,8,11a-pentamethyl-1-(prop-1-en-2-yl)-2,3,3a,4,5,5a,5b,6,7,7a,8,11,11a,11b,12,13,13a,13b-octadecahydro-1H-cyclopenta[a]chrysen-9-yl)benzoic acid]	< 100
C=C(C)[C@@H]1CC[C@]2(C(=O)NCCc3ccccn3)CC[C@]3(C)[C@H](CC[C@@H]4[C@@]5(C)CC=C(c6ccc(C(=O)O)cc6)C(C)(C)[C@@H]5CC[C@]43C)[C@@H]12 [Example 1, 4-((1R,3aS,5aR,5bR,7aR,11aS,11bR,13aR,13bR)-5a,5b,8,8,11a-pentamethyl-1-(prop-1-en-2-yl)-3a-(2-(pyridin-2-yl)ethylcarbamoyl)-2,3,3a,4,5,5a,5b,6,7,7a,8,11,11a,11b,12,13,13a,13b-octadecahydro-1H-cyclopenta[a]chrysen-9-yl)benzoic acid]	< 100
C=C(C)[C@@H]1CC[C@]2(C(=O)NCCc3ccccn3)CC[C@]3(C)[C@H](CC[C@@H]4[C@@]5(C)CC=C(c6ccc(C(=O)OC)cc6)C(C)(C)[C@@H]5CC[C@]43C)[C@@H]12 [Example 20, methyl 4-((1R,3aS,5aR,5bR,7aR,11aS,11bR,13aR,13bR)-5a,5b,8,8,11a-pentamethyl-1-(prop-1-en-2-yl)-3a-(2-(pyridin-2-yl)ethylcarbamoyl)-2,3,3a,4,5,5a,5b,6,7,7a,8,11,11a,11b,12,13,13a,13b-octadecahydro-1H-cyclopenta[a]chrysen-9-yl)benzoate]	> 100
C=C(C)[C@@H]1CC[C@]2(C(=O)NCCN(CC(=O)O)CC(=O)O)CC[C@]3(C)[C@H](CC[C@@H]4[C@@]5(C)CC=C(c6ccc(C(=O)O)cc6)C(C)(C)[C@@H]5CC[C@]43C)[C@@H]12 [Example 88, 2,2′-(2-((1R,3aS,5aR,5bR,7aR,11aS,11bR,13aR,13bR)-9-(4-carboxyphenyl)-5a,5b,8,8,11a-pentamethyl-1-(prop-1-en-2-yl)-2,3,3a,4,5,5a,5b,6,7,7a,8,11,11a,11b,12,13,13a,13b-octadecahydro-1H-cyclopenta[a]chrysene-3a-carboxamido)ethylazanediyl)diacetic acid]	> 100
C=C(C)[C@@H]1CC[C@]2(C(=O)NCCN(CCO)CCO)CC[C@]3(C)[C@H](CC[C@@H]4[C@@]5(C)CC=C(c6ccc(C(=O)O)cc6)C(C)(C)[C@@H]5CC[C@]43C)[C@@H]12 [Example 76, 4-((1R,3aS,5aR,5bR,7aR,11aS,11bR,13aR,13bR)-3a-(2-(bis(2-hydroxyethyl)amino)ethylcarbamoyl)-5a,5b,8,8,11a-pentamethyl-1-(prop-1-en-2-yl)-2,3,3a,4,5,5a,5b,6,7,7a,8,11,11a,11b,12,13,13a,13b-octadecahydro-1H-cyclopenta[a]chrysen-9-yl)benzoic acid]	< 100
CC(C)[C@@H]1CC[C@]2(C(=O)NCCc3ccccn3)CC[C@]3(C)[C@H](CC[C@@H]4[C@@]5(C)CC[C@H](c6ccc(C(=O)O)cc6)C(C)(C)[C@@H]5CC[C@]43C)[C@@H]12 [Example 54, 4-((1S,3aS,5aR,5bR,7aS,9S,11aS,11bR,13aR,13bR)-1-isopropyl-5a,5b,8,8,11a-pentamethyl-3a-(2-(pyridin-2-yl)ethylcarbamoyl)icosahydro-1H-cyclopenta[a]chrysen-9-yl)benzoic acid]	< 100
CC(C)[C@@H]1CC[C@]2(C(=O)NCCN(C)C)CC[C@]3(C)[C@H](CC[C@@H]4[C@@]5(C)CC=C(c6ccc(C(=O)O)cc6)C(C)(C)[C@@H]5CC[C@]43C)[C@@H]12 [Example 78, 4-((1S,3aS,5aR,5bR,7aR,11aS,11bR,13aR,13bR)-3a-(2-(dimethylamino)ethylcarbamoyl)-1-isopropyl-5a,5b,8,8,11a-pentamethyl-2,3,3a,4,5,5a,5b,6,7,7a,8,11,11a,11b,12,13,13a,13b-octadecahydro-1H-cyclopenta[a]chrysen-9-yl)benzoic acid]	< 100
C=C(C)[C@@H]1CC[C@]2(C(=O)NCC(O)CN)CC[C@]3(C)[C@H](CC[C@@H]4[C@@]5(C)CC=C(c6ccc(C(=O)O)cc6)C(C)(C)[C@@H]5CC[C@]43C)[C@@H]12 (stereo partly drawn) [Example 64, 4-((1R,3aS,5aR,5bR,7aR,11aS,11bR,13aR,13bR)-3a-(3-amino-2-hydroxypropylcarbamoyl)-5a,5b,8,8,11a-pentamethyl-1-(prop-1-en-2-yl)-2,3,3a,4,5,5a,5b,6,7,7a,8,11,11a,11b,12,13,13a,13b-octadecahydro-1H-cyclopenta[a]chrysen-9-yl)benzoic acid]	< 100
C=C(C)[C@@H]1CC[C@]2(C(=O)NCCN3CCC(F)(F)CC3)CC[C@]3(C)[C@H](CC[C@@H]4[C@@]5(C)CC=C(c6ccc(C(=O)O)cc6F)C(C)(C)[C@@H]5CC[C@]43C)[C@@H]12 [Example 119, 4-((1R,3aS,5aR,5bR,7aR,11aS,11bR,13aR,13bR)-3a-(2-(4,4-difluoropiperidin-1-yl)ethylcarbamoyl)-5a,5b,8,8,11a-pentamethyl-1-(prop-1-en-2-yl)-2,3,3a,4,5,5a,5b,6,7,7a,8,11,11a,11b,12,13,13a,13b-octadecahydro-1H-cyclopenta[a]chrysen-9-yl)-3-fluorobenzoic acid]	< 100
C=C(C)[C@@H]1CC[C@]2(C(=O)N[C@H](C(=O)O)C(C)C)CC[C@]3(C)[C@H](CC[C@@H]4[C@@]5(C)CC=C(c6ccc(C(=O)O)cc6)C(C)(C)[C@@H]5CC[C@]43C)[C@@H]12 [Example 61, 4-((1R,3aS,5aR,5bR,7aR,11aS,11bR,13aR,13bR)-3a-((S)-1-carboxy-2-methylpropylcarbamoyl)-5a,5b,8,8,11a-pentamethyl-1-(prop-1-en-2-yl)-2,3,3a,4,5,5a,5b,6,7,7a,8,11,11a,11b,12,13,13a,13b-octadecahydro-1H-cyclopenta[a]chrysen-9-yl)benzoic acid]	< 100
C=C(C)[C@@H]1CC[C@]2(C(=O)NCCN(C)C)CC[C@]3(C)[C@H](CC[C@@H]4[C@@]5(C)CC=C(c6ccc(C(=O)O)cc6)C(C)(C)[C@@H]5CC[C@]43C)[C@@H]12 [Example 16, 4-((1R,3aS,5aR,5bR,7aR,11aS,11bR,13aR,13bR)-3a-(2-(dimethylamino)ethylcarbamoyl)-5a,5b,8,8,11a-pentamethyl-1-(prop-1-en-2-yl)-2,3,3a,4,5,5a,5b,6,7,7a,8,11,11a,11b,12,13,13a,13b-octadecahydro-1H-cyclopenta[a]chrysen-9-yl)benzoic acid]	< 100
C=C(C)[C@@H]1CC[C@]2(C(=O)NCCCN3CCS(=O)(=O)CC3)CC[C@]3(C)[C@H](CC[C@@H]4[C@@]5(C)CC=C(c6ccc(C(=O)O)c(F)c6)C(C)(C)[C@@H]5CC[C@]43C)[C@@H]12 [Example 105, 4-((1R,3aS,5aR,5bR,7aR,11aS,11bR,13aR,13bR)-3a-((3-(1,1-dioxido-4-thiomorpholinyl)propyl)carbamoyl)-1-isopropenyl-5a,5b,8,8,11a-pentamethyl-2,3,3a,4,5,5a,5b,6,7,7a,8,11,11a,11b,12,13,13a,13b-octadecahydro-1H-cyclopenta[a]chrysen-9-yl)-2-fluorobenzoic acid]	< 100
C=C(C)[C@@H]1CC[C@]2(C(=O)NCc3nccs3)CC[C@]3(C)[C@H](CC[C@@H]4[C@@]5(C)CC=C(c6ccc(C(=O)O)cc6)C(C)(C)[C@@H]5CC[C@]43C)[C@@H]12 [Example 41, 4-((1R,3aS,5aR,5bR,7aR,11aS,11bR,13aR,13bR)-5a,5b,8,8,11a-pentamethyl-1-(prop-1-en-2-yl)-3a-(thiazol-2-ylmethylcarbamoyl)-2,3,3a,4,5,5a,5b,6,7,7a,8,11,11a,11b,12,13,13a,13b-octadecahydro-1H-cyclopenta[a]chrysen-9-yl)benzoic acid]	< 100
C=C(C)[C@@H]1CC[C@]2(C(=O)NCCN(CC)CCCC(=O)O)CC[C@]3(C)[C@H](CC[C@@H]4[C@@]5(C)CC=C(c6ccc(C(=O)O)cc6)C(C)(C)[C@@H]5CC[C@]43C)[C@@H]12 [Example 103, 4-((1R,3aS,5aR,5bR,7aR,11aS,11bR,13aR,13bR)-3a-(2-((3-carboxypropyl)(ethyl)amino)ethylcarbamoyl)-5a,5b,8,8,11a-pentamethyl-1-(prop-1-en-2-yl)-2,3,3a,4,5,5a,5b,6,7,7a,8,11,11a,11b,12,13,13a,13b-octadecahydro-1H-cyclopenta[a]chrysen-9-yl)benzoic acid]	< 100
